Results: the supplement of paper PMC10307832

Key:
Experiment in all cases: relative viability (nuclei count vs DMSO), 5 days (fraction); higher = more cells survive
Pictilisib + Dasatinib = compound: CS(=O)(=O)N1CCN(Cc2cc3nc(-c4cccc5[nH]ncc45)nc(N4CCOCC4)c3s2)CC1 [Pictilisib] + Cc1nc(Nc2ncc(C(=O)Nc3c(C)cccc3Cl)s2)cc(N2CCN(CCO)CC2)n1 [Dasatinib] (partner 0.075 µM)
Procedure, shortened: (§1)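 Nuclei were stained with Hoechst during a one-step fixation (final 0.05% Triton X-100, 1% formaldehyde, 1 ug/ml Hoechst) carried out 5 days after dosing, then counted on 4× images. The cells, lung cancer lines in 1536-well plates, had been dosed by pin tool the day after seeding with one drug alone or a fixed anchor-drug dose plus five library-drug doses (not always all listed) in √10 steps. Relative viability is the nuclei count in treated wells divided by that in vehicle wells, and each value is the median of duplicate plates.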

MK-2206 + Navitoclax = compound: NC1(c2ccc(-c3nc4ccn5c(=O)[nH]nc5c4cc3-c3ccccc3)cc2)CCC1 [MK-2206] + CC1(C)CCC(c2ccc(Cl)cc2)=C(CN2CCN(c3ccc(C(=O)NS(=O)(=O)c4ccc(N[C@H](CCN5CCOCC5)CSc5ccccc5)c(S(=O)(=O)C(F)(F)F)c4)cc3)CC2)C1 [Navitoclax] (partner 0.5 µM)
Procedure, shortened: as §1

MK-2206 + OSI-027 = compound: NC1(c2ccc(-c3nc4ccn5c(=O)[nH]nc5c4cc3-c3ccccc3)cc2)CCC1 [MK-2206] + COc1cccc2cc(-c3nc([C@H]4CC[C@H](C(=O)O)CC4)n4ncnc(N)c34)[nH]c12 [OSI-027] (partner 0.5 µM)
Procedure, shortened: as §1

MK-2206 + Phenformin = compound: NC1(c2ccc(-c3nc4ccn5c(=O)[nH]nc5c4cc3-c3ccccc3)cc2)CCC1 [MK-2206] + N=C(N)NC(=N)NCCc1ccccc1 [Phenformin] (partner 250 µM)
Procedure, shortened: as §1

MK-2206 + Pemetrexed = compound: NC1(c2ccc(-c3nc4ccn5c(=O)[nH]nc5c4cc3-c3ccccc3)cc2)CCC1 [MK-2206] + Nc1nc2[nH]cc(CCc3ccc(C(=O)N[C@@H](CCC(=O)O)C(=O)O)cc3)c2c(=O)[nH]1 [Pemetrexed] (partner 0.2 µM)
Procedure, shortened: as §1

| Cell Line | relative viability (Pictilisib + Dasatinib; first compound 0.02 µM) | relative viability (Pictilisib + Dasatinib; first compound 0.06325 µM) | relative viability (Pictilisib + Dasatinib; first compound 0.6325 µM) | relative viability (Pictilisib + Dasatinib; first compound 2 µM) | relative viability (MK-2206 + Navitoclax; first compound 0.01 µM) | relative viability (MK-2206 + Navitoclax; first compound 0.03162 µM) | relative viability (MK-2206 + Navitoclax; first compound 0.3162 µM) | relative viability (MK-2206 + Navitoclax; first compound 1 µM) | relative viability (MK-2206 + OSI-027; first compound 0.01 µM) | relative viability (MK-2206 + OSI-027; first compound 0.03162 µM) | relative viability (MK-2206 + OSI-027; first compound 0.3162 µM) | relative viability (MK-2206 + OSI-027; first compound 1 µM) | relative viability (MK-2206 + Phenformin; first compound 0.01 µM) | relative viability (MK-2206 + Phenformin; first compound 0.03162 µM) | relative viability (MK-2206 + Phenformin; first compound 0.3162 µM) | relative viability (MK-2206 + Phenformin; first compound 1 µM) | relative viability (MK-2206 + Pemetrexed; first compound 0.01 µM) | relative viability (MK-2206 + Pemetrexed; first compound 0.03162 µM) | relative viability (MK-2206 + Pemetrexed; first compound 0.3162 µM) | relative viability (MK-2206 + Pemetrexed; first compound 1 µM) |
| --- | --- | --- | --- | --- | --- | --- | --- | --- | --- | --- | --- | --- | --- | --- | --- | --- | --- | --- | --- | --- |
| NCI-H1437 | 0.445 | 0.386 | 0.255 | 0.178 | 1.07 | 1.16 | 1.18 | 1.09 | 0.91 | 0.844 | 0.746 | 0.675 | 0.297 | 0.265 | 0.306 | 0.301 | 0.321 | 0.325 | 0.334 | 0.258 |
| NCI-H1650 | 0.406 | 0.277 | 0.174 | 0.16 | 1.11 | 1 | 1.06 | 1.02 | 0.58 | 0.66 | 0.488 | 0.39 | 0.509 | 0.465 | 0.388 | 0.384 | 0.3 | 0.379 | 0.319 | 0.347 |
| NCI-H1651 | 0.35 | 0.387 | 0.358 | 0.201 | 0.994 | 1.05 | 1.02 | 0.998 | 0.786 | 0.684 | 0.807 | 0.784 | 0.362 | 0.302 | 0.336 | 0.365 | 0.562 | 0.575 | 0.621 | 0.513 |
| NCI-H1666 | 0.805 | 0.876 | 0.568 | 0.523 | 0.953 | 0.927 | 0.81 | 0.655 | 0.845 | 0.806 | 0.729 | 0.767 | 0.586 | 0.595 | 0.568 | 0.563 | 0.793 | 0.774 | 1.03 | 0.787 |
| NCI-H1734 | 0.451 | 0.424 | 0.281 | 0.182 | 0.848 | 0.85 | 0.584 | 0.681 | 0.603 | 0.572 | 0.366 | 0.356 | 0.355 | 0.458 | 0.304 | 0.338 | 0.393 | 0.391 | 0.401 | 0.391 |
| NCI-H1755 | 0.406 | 0.415 | 0.246 | 0.187 | 1.02 | 0.985 | 0.829 | 0.895 | 0.76 | 0.723 | 0.509 | 0.6 | 0.68 | 0.632 | 0.551 | 0.587 | 0.405 | 0.404 | 0.353 | 0.374 |
| NCI-H1792 | 0.811 | 0.795 | 0.417 | 0.228 | 0.603 | 0.706 | 0.655 | 0.578 | 0.718 | 0.824 | 0.686 | 0.622 | 0.329 | 0.351 | 0.161 | 0.184 | 0.76 | 0.929 | 0.654 | 0.373 |
| NCI-H1793 | 0.361 | 0.39 | 0.351 | 0.243 | 0.521 | 0.475 | 0.352 | 0.463 | 0.274 | 0.288 | 0.229 | 0.199 | 0.386 | 0.47 | 0.206 | 0.218 | 0.908 | 0.863 | 0.844 | 0.783 |
| NCI-H1915 | 0.326 | 0.317 | 0.304 | 0.286 | 0.813 | 0.83 | 0.835 | 0.784 | 0.646 | 0.693 | 0.606 | 0.496 | 0.351 | 0.384 | 0.379 | 0.367 | 0.487 | 0.42 | 0.473 | 0.494 |
| NCI-H1944 | 0.231 | 0.186 | 0.164 | 0.173 | 1.07 | 1.03 | 1.02 | 0.992 | 0.478 | 0.447 | 0.361 | 0.326 | 0.197 | 0.217 | 0.169 | 0.185 | 0.612 | 0.575 | 0.603 | 0.576 |
| NCI-H1975 | 0.368 | 0.242 | 0.105 | 0.144 | 1.05 | 0.969 | 0.938 | 0.787 | 0.745 | 0.611 | 0.42 | 0.381 | 0.428 | 0.402 | 0.312 | 0.326 | 0.314 | 0.286 | 0.331 | 0.262 |
| NCI-H1993 | 0.508 | 0.467 | 0.483 | 0.58 | 0.901 | 0.801 | 0.678 | 0.649 | 0.493 | 0.579 | 0.469 | 0.595 | 0.496 | 0.491 | 0.562 | 0.568 | 0.727 | 0.555 | 0.516 | 0.477 |
| NCI-H2009 | 0.307 | 0.298 | 0.159 | 0.129 | 1.12 | 1.15 | 1.17 | 1.13 | 0.63 | 0.582 | 0.497 | 0.399 | 0.474 | 0.464 | 0.436 | 0.4 | 1.05 | 1.01 | 1.05 | 1.03 |
